Results from patent US20190030009A1, “COMPOUNDS AND COMPOSITIONS FOR THE TREATMENT OF CRYPTOSPORIDIOSIS” (Novartis AG, priority 2016, published 2019).

Key:
Cryptosporidium parvum = test: Cytopathic effect (CPE) based assay, C. parvum infected HCT-8 cells; conditions: HCT-8 host cell viability (CellTiter-Glo), 48 hours treatment, read-out: Cp CPE EC50
Protocol: Human ileocecal colorectal adenocarcinoma cells (HCT-8 [HRT-18] ATCC, CCL-34) were maintained in T-175 flasks (Corning, 431080) in complete growth medium (RPMI-1640 medium (Gibco, 11875) supplemented with 10% heat-inactivated horse serum (Gibco, 26050), 1×MEM non-essential amino acids (Gibco, 11140), 10 mM HEPES (Gibco, 15630), 100 units/mL penicillin, and 100 units/mL streptomycin) at 37° C. and 5% CO2 in a humidified incubator. Cultures were passaged twice weekly using 10 mL of 1×Phosphate-Buffered Saline (PBS) without Ca^2+ and Mg^2+ (Gibco, 20012) for washing and 3-5 mL per T-175 flask of TrypLE Express Enzyme (Gibco, 12604) for dissociation of adherent cells.
Cryptosporidium parvum oocysts purchased from the Sterling Laboratory, University of Arizona (Iowa isolate) were purified from infected calf feces using discontinuous sucrose and cesium chloride centrifugation gradients and stored in PBS solution containing 0.01% Tween 20, 100 units/mL penicillin and 100 units/mL gentamicin.
Excystation and infection protocols were developed following established methods with some modifications (Gut & Nelson, 1999, Upton et aL, 1995, Bessoff et aL, 2013). Briefly, oocysts were primed in 1 mL of 10 mM hydrochloric acid in 1× Hank's Balanced Salt Solution (HBSS) (Gibco, 14025) for 10 minutes with agitation at 1000 rpm, 37° C. on an Eppendorf thermomixer, then washed twice with 1 mL of room temperature non-acidic 1× HBSS by centrifugation at 13,000 rpm for 3 minutes at 25° C. Primed oocysts were further excysted at a concentration of 1×10^6 oocysts/μL in parasite infection medium consisting of a pre-warmed and pre-gassed 1:1 formulation of Leibovitz's L-15 medium (Gibco, 11415) and UltraCULTURE medium (Lonza, 12-725F) supplemented with 2 mM sodium taurocholate (Sigma, 86339-1), 10% heat-inactivated horse serum, and 200 μM L-ascorbic acid (Sigma, 95210) at 25° C. for 10 minutes. HCT-8 monolayer cells were infected with excysted cryptosporidium at a specified multiplicity of infection (MOI). All dilutions for subsequent assays were performed in parasite infection medium without sodium taurocholate. Pre-excysted oocysts were enumerated microscopically using a C-Chip disposable hemocytometer (NanoEnTek, DHC-N01).
Compound powders were dissolved in neat DMSO (Fisher, D4121) to 10 mM and stored at 4° C. prior to dilution into source plates. Dilutions were carried out using a Microlab STAR liquid handler (Hamilton) to obtain compound source plates containing the ten-point or eight-point three fold dilutions starting from 10 mM in duplicates. Source plates were stored at 4° C. prior to spotting into assay plates. Before administration, all compound source plates were equilibrated to room temperature. A specified volume of compounds from source plate were spotted to assay plate using an Echo Acoustic liquid handler (LABCYTE, 550) so that the final DMSO concentration was less than 0.5%. Each assay plate a specified number of DMSO-treated negative control wells and a well-studied potent active compound at 100 nM as positive control. As a quality control, all positive and negative-control wells were used to calculate a Z′-value and signal to noise ratio (S:N) for each plate.
Cryptosporidium spp are obligate-intracellular parasites that infect intestinal epithelial cells and the host cell is killed upon parasite egress. […] The loss of epithelial cells is due to both rapid parasite invasion/multiplication/egress and also pro-inflammatory immune response (Adams et al., 1994, Griffiths et al., 1994). We have observed a consistent cytopathic effect (CPE) in HCT-8 cells with C. spp infection the loss of viability of the host cells using CellTiter-Glo reagent.
Confluent HCT-8 cells in T-175 flasks were directly infected with excysted oocysts at an MOI (host to parasite) of 1:2 for C. parvum and 1:4 for C. hominis. The number of host-cells is determined using a NucleoCounter (Chemometec, NC-100) in a control flask. […]

[1] = Cytotoxicity against HepG2; assay type: cell-based; conditions: human, HepG2 cells (ATCC HB-8065), 5 days exposure
Protocol: Cytotoxicity against HepG2 (ATCC# HB-8065), a human liver cancer cell line, was determined as previously described earlier (Manjunatha et al., 2015). Briefly, cells were seeded at a density of 10^5 cells per well, incubated at 37° C. for 24 h and exposed to two-fold serially-diluted compounds for 5 days. Cell viability was monitored using the Cell Proliferation Kit II (Invitrogen). The cytotoxicity values of selected compounds are reported in the fifth column [HepG2 CC50 (μM)] of Table II.

SMILES | EC50 (Cryptosporidium parvum) [µM] | CC50 at 5 days [1] [µM]
CN(C(=O)c1ccc(F)cn1)c1ccn2ncc(-c3ccc(C(F)(F)F)cc3)c2c1 [Example 51] | > 20 | 
Fc1ccc(SCc2ccn3ncc(-c4ccc(C(F)(F)F)cc4)c3c2)cc1 [Example 21] | > 20 | 
CN(C(=O)c1ccn2ncc(-c3ccc(C(F)(F)F)cc3)c2c1)c1ccc(S(C)(=O)=O)cn1 [Example 34] | 4.87 | 
CN(C(=O)c1ccn2ncc(-c3ccc(C(F)(F)F)cc3)c2c1)c1ccc(F)cc1 [Example 4] | 6.78 | 
CN(C(=O)c1ccc(F)cc1)c1ccn2ncc(-c3ccc(C(F)(F)F)cc3)c2c1 [Example 29] | > 20 | 
Cc1cc(-c2cnn3ccc(C(=O)N(C)c4ccc(C#N)cc4)cc23)cnc1N [Example 81] | 0.683 | 
CN(C(=O)c1ccn2ncc(-c3cnc(Cl)c(NS(C)(=O)=O)c3)c2c1)c1ccc(C#N)cn1 [Example 107] |  | 39.7
CN(Cc1ccc(F)cc1)c1ccn2ncc(-c3ccc(C(F)(F)F)cc3)c2c1 [Example 36] | > 20 | 
CN(C(=O)c1ccn2ncc(-c3ccc(N)cc3)c2c1)c1ccc(C#N)cc1 [Example 42] | 0.142 | 
CNC(=O)c1ccc(-c2cnn3ccc(C(=O)N4CCOc5cc(F)ccc54)cc23)cc1 [Example 73] | 0.964 | 
CCN(C(=O)c1ccn2ncc(-c3ccc(C(=O)NC)cc3)c2c1)c1ccc(C#N)c(OCCO)n1 [Example 162] |  | 24.4
CC(c1ccn2ncc(-c3ccc(C(N)=O)cc3)c2c1)N1C(=O)COc2cc(F)ccc21 (centres unmarked) [Example 66] | 0.132 | 
CN(C(=O)Nc1ccc(F)cc1)c1ccn2ncc(-c3ccc(C(F)(F)F)cc3)c2c1 [Example 47] | > 20 | 
CNC(=O)c1ccc(-c2cnn3ccc(C(=O)N4c5ccc(F)cc5OCC4C)cc23)cc1 (centres unmarked) [Example 74] | 1.24 | 
CN(C(=O)c1ccn2ncc(-c3ccc(C(N)=O)cc3)c2c1)c1ccc(Cl)cc1C=O [Example 89] | 0.085 | 
Cc1ccc(N(C)C(=O)c2ccn3ncc(-c4ccc(C(F)(F)F)cc4)c3c2)nc1 [Example 5] | > 20 | 
CN(C(=O)c1ccn2ncc(-c3cnc4[nH]ccc4c3)c2c1)c1ccc(C#N)cc1 [Example 40] | 0.074 | 
CN(c1ccn2ncc(-c3ccc(C(F)(F)F)cc3)c2c1)S(=O)(=O)c1ccc(C#N)cc1 [Example 30] | > 20 | 
CN(C(=O)c1ccc(C2CC2)nc1)c1ccn2ncc(-c3ccc(C(F)(F)F)cc3)c2c1 [Example 49] | 19.2 | 

SMILES | EC50 (Cryptosporidium parvum) [µM] | CC50 at 5 days [1] [µM]
[O-][S+](Cc1ccn2ncc(-c3ccc(C(F)(F)F)cc3)c2c1)c1ccc(F)cc1 (centres unmarked) [Example 22] | > 20 | 
Cc1ccc(OCc2ccn3ncc(-c4ccc(C(F)(F)F)cc4)c3c2)nc1 [Example 15] | > 20 | 
Cc1ccc(N(C)Cc2ccn3ncc(-c4ccc(C(F)(F)F)cc4)c3c2)nc1 [Example 7] | > 20 | 
CNC(=O)c1ccc(-c2cnn3ccc(C(=O)N(C)c4ccc(C#N)cc4)cc23)cc1 [Example 67] | 0.026 | 
C[C@H](N)C(=O)Nc1ccc(-c2cnn3ccc(C(=O)N(C)c4ccc(C#N)cc4)cc23)cc1 [Example 26] | 0.142 | 
CS(=O)(=O)c1ccc(N(CC2CCOCC2)C(=O)c2ccn3ncc(-c4ccc(C(F)(F)F)cc4)c3c2)cc1 [Example 12] | 12.6 | 
CN(C(=O)c1ccn2ncc(-c3ccc(C(N)=O)cn3)c2c1)c1ccc(C#N)cn1 [Example 61] | 17.8 | 
Cc1cc(-c2cnn3ccc(C(=O)N(C)c4ccc(C#N)cc4)cc23)cc(C)c1N [Example 80] | 1.17 | 
CNC(=O)c1ccc(-c2cnn3ccc(S(=O)(=O)N(c4ccc(C#N)cn4)C4CC4)cc23)cc1 [Example 164] |  | 6.98
COc1ccc(-c2cnn3ccc(C(=O)N(C)c4ccc(C#N)cn4)cc23)nc1 [Example 60] | 2.37 | 
CN(C(=O)c1ccn2ncc(-c3ccc(C(F)(F)F)cn3)c2c1)c1ccc(C#N)cn1 [Example 25] | 2.3 | 
CN(C(=O)c1ccn2ncc(-c3cnc(N)c(F)c3)c2c1)c1ccc(C#N)cc1 [Example 79] | 0.205 | 
Fc1ccc(CNc2ccn3ncc(-c4ccc(C(F)(F)F)cc4)c3c2)cc1 [Example 35] | > 20 | 
CN(C(=O)c1ccc(Cl)cc1)c1ccn2ncc(-c3ccc(C(F)(F)F)cc3)c2c1 [Example 55] | 7.3 | 
CN(C(=O)c1ccn2ncc(-c3ccc(C(F)(F)F)cc3)c2c1)c1ccc(Cl)cc1 [Example 3] | 16.5 | 
CN(C(=O)c1ccn2ncc(-c3ccc(C(F)(F)F)cn3)c2c1)c1ccc(C#N)cc1 [Example 24] | > 20 | 
Cc1ccc(-c2cnn3ccc(C(=O)N(C)c4ccc(C#N)cn4)cc23)nc1 [Example 59] | > 20 | 
COc1cc(-c2cnn3ccc(C(=O)N(C)c4ccc(C#N)cn4)cc23)cnc1N [Example 88] | 2.25 | 
CNc1nnc(-c2ccc(-c3cnn4ccc(N(C)C(=O)c5ccc(F)cc5)cc34)cc2)s1 [Example 57] | 5.59 | 

SMILES | EC50 (Cryptosporidium parvum) [µM] | CC50 at 5 days [1] [µM]
CC(=O)Nc1ccc(-c2cnn3ccc(C(=O)N(C)c4ccc(C#N)cn4)cc23)cc1 [Example 69] | 0.201 | 
CN(C(=O)c1ccc(C2CC2)cc1)c1ccn2ncc(-c3ccc(C(F)(F)F)cc3)c2c1 [Example 50] | > 20 | 
CNC(=O)c1ccc(-c2cnn3ccc(C(=O)N(c4ccc(C#N)cn4)C4COC4)cc23)cc1 [Example 76] | > 20 | 
CN(C(=O)c1ccc(C(F)(F)F)nc1)c1ccn2ncc(-c3ccc(C(F)(F)F)cc3)c2c1 [Example 37] | 3.79 | 
CN(C(=O)c1ccc(C(C)(F)F)nc1)c1ccn2ncc(-c3ccc(C(F)(F)F)cc3)c2c1 [Example 48] | 6.3 | 
N#Cc1ccc(C(=O)N(CC2CCOCC2)c2ccn3ncc(-c4ccc(C(F)(F)F)cc4)c3c2)cc1 [Example 39] | > 20 | 
CN(C(=O)c1ccn2ncc(-c3ccc(C(F)(F)F)cc3)c2c1)c1ccc(C(F)(F)F)cn1 [Example 33] | 1.51 | 
CN(C(=O)c1ccn2ncc(-c3ccc(C(N)=O)cc3)c2c1)c1ccc(C(F)(F)F)cn1 [Example 62] | 0.028 | 
CN(C(=O)c1ccn2ncc(-c3cnc(N)c(Cl)c3)c2c1)c1ccc(C#N)cn1 [Example 86] | 0.501 | 
Cc1ccc(N(C)C(=O)c2ccn3ncc(-c4ccc(C(N)=O)cc4)c3c2)nc1 [Example 63] | 0.195 | 
CN(C(=O)c1ccc(C(F)(F)F)cn1)c1ccn2ncc(-c3ccc(C(F)(F)F)cc3)c2c1 [Example 38] | 4.71 | 
CN(Cc1ccn2ncc(-c3ccc(C(F)(F)F)cc3)c2c1)c1ccc(F)cc1 [Example 2] | > 20 | 
CN(C(=O)c1ccn2ncc(-c3ccc(C(F)(F)F)cc3)c2c1)C1=CCC(C#N)C=C1 (centres unmarked) [Example 1] | 0.66 | 
CC(=O)Nc1ccc(-c2cnn3ccc(C(C)N(C)c4ccc(C)cn4)cc23)cc1 (centres unmarked) [Example 68] | 19.6 | 
Fc1ccc(CCc2ccn3ncc(-c4ccc(C(F)(F)F)cc4)c3c2)cc1 [Example 16] | > 20 | 
CN(c1ccn2ncc(-c3ccc(C(F)(F)F)cc3)c2c1)S(=O)(=O)c1ccc(F)cc1 [Example 31] | > 20 | 
CN(C(=O)c1ccc(F)cc1)c1ccn2ncc(-c3ccc(C(N)=O)cc3)c2c1 [Example 56] | 0.692 | 
CN(C(=O)c1ccn2ncc(-c3cnc(N)c(C(F)(F)F)c3)c2c1)c1ccc(C#N)cn1 [Example 84] | 4.27 | 
